Measured values from ChEMBL document CHEMBL1141700, “Discovery of the catechol structural moiety as a Stat3 SH2 domain inhibitor by virtual screening” (Bioorg Med Chem Lett, 2008).
Active and inactive are the calls of the source. The rule behind the calls is not given here.

Columns and labels:
[1] = biological target: T1, Signal transducer and activator of transcription 3 (Homo sapiens, UniProt P40763); experiment: Inhibition of Stat3 binding to DNA in human U266 whole cell lysate by ELISA; format: cell-free, U-266
[2] = biological target: T1, Signal transducer and activator of transcription 3; experiment: Inhibition of Stat3 binding to DNA in human U266 whole cell lysate at 100 ug/ml by ELISA; format: cell-free; conditions: U-266
[3] = biological target: T1, Signal transducer and activator of transcription 3; experiment: Inhibition of Stat3 phosphorylation in human U266 whole cell lysate by Western blotting; format: cell-based; conditions: U-266
[4] = biological target: Signal transducer and activator of transcription 3 (Mus musculus) (UniProt P42227); experiment: Displacement of pTyr705 from flag-tagged mouse Stat3 SH2 domain expressed in HEK293 cells up to 200 uM by fluorescence polarization
Chain of Signal transducer and activator of transcription 3 (Mus musculus) (P42227 whole entry, the tested form may be a part): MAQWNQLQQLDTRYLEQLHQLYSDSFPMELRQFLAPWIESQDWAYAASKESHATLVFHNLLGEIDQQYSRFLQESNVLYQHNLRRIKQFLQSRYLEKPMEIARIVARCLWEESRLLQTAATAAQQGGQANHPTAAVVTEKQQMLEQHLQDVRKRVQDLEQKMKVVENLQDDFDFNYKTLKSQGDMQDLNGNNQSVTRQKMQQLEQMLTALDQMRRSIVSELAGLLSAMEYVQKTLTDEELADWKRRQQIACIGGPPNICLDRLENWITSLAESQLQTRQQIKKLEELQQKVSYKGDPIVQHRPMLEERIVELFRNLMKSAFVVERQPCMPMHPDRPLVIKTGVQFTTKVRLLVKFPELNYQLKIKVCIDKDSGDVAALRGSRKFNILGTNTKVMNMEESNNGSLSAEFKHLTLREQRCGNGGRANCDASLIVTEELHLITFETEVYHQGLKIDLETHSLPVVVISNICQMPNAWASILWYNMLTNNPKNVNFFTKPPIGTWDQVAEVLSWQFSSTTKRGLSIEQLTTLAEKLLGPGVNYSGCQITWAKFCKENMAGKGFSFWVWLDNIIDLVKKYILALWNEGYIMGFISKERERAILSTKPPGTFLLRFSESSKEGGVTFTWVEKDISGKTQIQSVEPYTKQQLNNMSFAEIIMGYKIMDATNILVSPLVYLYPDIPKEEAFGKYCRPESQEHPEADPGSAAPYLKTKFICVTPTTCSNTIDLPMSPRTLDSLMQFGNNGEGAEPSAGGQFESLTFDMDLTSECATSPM

T1 sequence (P40763 whole entry): as the sequence (P42227 whole entry, the tested form may be a part) above, with D760E counted along it

Cc1oc(C)c2c(=O)cc(-c3ccc(O)c(O)c3)cc(O)c12
IC50 [1]: 106 µM

Oc1ccc(CC/N=C/c2c(O)ccc3ccccc23)cc1O
inhibition [2]: 50%

O=C(c1ccc(O)c(O)c1)c1cnc(NCc2ccc(F)cc2)s1
inhibition [2]: 57%

Oc1ccc(CC/N=C/c2cccc(O)c2O)cc1O
inhibition [2]: 51%

O=C(Cc1ccc2c(c1)OCO2)NCCc1ccc(O)c(O)c1
inhibition [2]: 40% | IC50 [1]: 357 µM | Activity [3]: Active | Activity [4]: inactive

Oc1cccc(-c2nc3ccccc3s2)c1O
inhibition [2]: 56%

O=C(O)c1ccccc1/N=C\c1ccc(O)c(O)c1
inhibition [2]: 8%
